# Assay results: patent US8568696B2, “Grinding method for the manipulation or preservation of calcium phosphate hybrid properties” (Indiana Nanotech LLC, priority 2008, dated 2013)
# Tests used:
# [1] = Long-term accelerated aging of NaF(aq)-hybrid suspensions, fluoride availability by fluoride-sensitive electrode; type: physicochemical; details: supernatant, triplicate
# Procedure: Long-term accelerated aging studies were performed on NaF(aq)-hybrid suspensions. The experiments were carried out in triplicate with 1 mL of each supernatant aspirated, mixed with 1 mL of TISAB II (1:1), and measured with a fluoride-sensitive electrode calibrated to known standards of 100, 950, and 1900 ppm fluoride.
# The purpose of this study was to determine if the NaF(aq)-hybrid suspensions maintain sufficient fluoride availability. • 0.24% and 0.32% NaF systems were aged for 122 Days @ 40° C. • 0.05% NaF systems were aged for 119 Days @ 40° C. Results
# [2] = In vitro remineralization/demineralization pH cycling study, Vickers surface microhardness of eroded enamel; design: species or system Bovine; details: change in Vickers microhardness relative to baseline
# Procedure: An efficacy study was run in order to evaluate in multiple pH remin/demin cycling models the efficacy of calcium phosphate blends prepared as described above in remineralizing eroded enamel. These studies involved 226 ppm fluoride rinse systems.
# The experiment design for the remineralization/demineralization pH cycling study is as follows. Bovine enamel specimens were extracted, ground, and polished. Initial erosion was performed by immersing each enamel specimen in 10 ml of 1% citric acid (pH=3.8) for 30 minutes. After the immersion, four baseline Vickers indentations under a 200 gf load for 15 seconds were made on each specimen and those with a Vickers microhardness number between 200 and 230 VHN were selected for the study. There were three groups in this study (N=10 specimens per group): • Group 1: negative control (DI water) • Group 2: positive control (226 ppm F) • Group 3: 226 ppm F plus 0.004% β-tricalcium phosphate-silica-carbamide
# The cycling regimen consisted of five, two-minute/day acid challenges and three, two-minute treatments/day. In between treatments and acid challenges, each specimen was immersed in artificial mineral mix. This process was repeated up to 20 days, after which a post-cycle acid challenge was administered using 1% citric acid (pH=3.8) for 11 minutes. The specimens were evaluated for Vickers surface microhardness after 10 and 20 days as well as after the post-cycle acid challenge. The change in Vickers microhardness relative to baseline values was then used as the performance gauge. Remineralization efficacy was evaluated by comparing post surface Vickers microhardness numbers to baseline surface Vickers values. Means and standard deviations of the means were calculated and the Student Q-test was employed to assess accuracy of the individual specimen measurements within each group. […]
# This cycling study evaluated the β-tricalcium phosphate-silica-carbamide blend when combined in a 226 ppm fluoride (NaF(aq)) solution and tested in a pH cycling model. […]
structure (smiles),measurement,setting,value
[F-].[Na+] [0.24% NaF Control],Mean ppm F ± Std. Dev,[1]; aged for 122 Days @ 40° C.,1080.7 ± 4.8 ppm F
[F-].[Na+] [0.32% NaF Control],Mean ppm F ± Std. Dev,[1]; aged for 122 Days @ 40° C.,1493.3 ± 3.3 ppm F
[F-].[Na+] [0.05% NaF Control],Mean ppm F ± Std. Dev,[1]; aged for 119 Days @ 40° C.,231.7 ± 0.5 ppm F
[F-].[Na+] [Group 2],"Mean ΔVHN ± SEM, after 10 days","[2]; 10 days pH cycling, N=10 specimens per group",73.2 ± 7.0^2
same,"Mean ΔVHN ± SEM, after 20 days","[2]; 20 days pH cycling, N=10 specimens per group",67.6 ± 7.6^2
same,"Mean ΔVHN ± SEM, after post-cycle acid challenge","[2]; after 11-minute post-cycle acid challenge, 1% citric acid pH 3.8",81.9 ± 7.1^2
